Target: HPCS, 3-hydroxypropionyl-CoA synthetase (HPCS/HPCD complex) (Metallosphaera sedula, UniProt A4YGR1)
Conditions: ATP 3 mM, CoA 0.1 mM, MgCl2 20 mM, NADPH 0.5 mM, pH 6.5, 65°C

Chain of HPCS, 3-hydroxypropionyl-CoA synthetase (HPCS/HPCD complex) (A4YGR1 whole entry): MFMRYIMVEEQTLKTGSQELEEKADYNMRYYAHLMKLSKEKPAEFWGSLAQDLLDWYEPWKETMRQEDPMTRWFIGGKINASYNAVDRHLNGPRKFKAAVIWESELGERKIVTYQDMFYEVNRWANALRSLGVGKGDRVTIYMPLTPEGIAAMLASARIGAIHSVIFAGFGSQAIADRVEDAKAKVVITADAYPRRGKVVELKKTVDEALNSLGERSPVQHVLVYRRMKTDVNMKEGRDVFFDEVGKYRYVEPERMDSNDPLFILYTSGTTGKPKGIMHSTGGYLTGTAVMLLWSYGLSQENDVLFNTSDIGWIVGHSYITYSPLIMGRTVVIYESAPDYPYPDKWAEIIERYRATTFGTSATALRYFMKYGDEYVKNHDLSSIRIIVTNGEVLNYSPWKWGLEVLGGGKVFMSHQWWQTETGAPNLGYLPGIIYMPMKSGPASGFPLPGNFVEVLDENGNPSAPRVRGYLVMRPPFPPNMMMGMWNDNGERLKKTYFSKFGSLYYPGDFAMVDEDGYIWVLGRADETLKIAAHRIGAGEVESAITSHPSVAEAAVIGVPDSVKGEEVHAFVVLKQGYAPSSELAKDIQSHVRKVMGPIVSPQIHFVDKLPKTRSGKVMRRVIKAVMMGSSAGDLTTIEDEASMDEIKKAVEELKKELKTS
Chain of HPCS, 3-hydroxypropionyl-CoA synthetase (HPCS/HPCD complex) (A4YI89 whole entry partner): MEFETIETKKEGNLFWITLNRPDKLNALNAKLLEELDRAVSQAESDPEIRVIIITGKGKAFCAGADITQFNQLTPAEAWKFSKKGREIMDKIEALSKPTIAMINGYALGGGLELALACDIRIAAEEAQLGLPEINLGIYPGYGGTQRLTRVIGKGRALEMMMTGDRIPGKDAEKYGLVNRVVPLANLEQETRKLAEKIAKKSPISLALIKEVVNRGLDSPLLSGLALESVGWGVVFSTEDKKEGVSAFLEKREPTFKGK

Question: Which “HPLC of propionyl-CoA formed with HPCS/HPCD and ACR” value does the source give for O=C(O)CCO [3-Hydroxypropionate] here?
Answer: Its value is “Formation of propionyl-CoA from 3HP by HPCS, HDCD, and ACR”.

Reference: PMC5433351 (Metabolic engineering, 2016)
